“Also recorded” adds a separate entry of the source.
Key:
Assay type in all cases: cell-based, mouse
[1] = test system: dendritic cells; assay: Flow cytometry analysis of CD86 levels (DC activation/maturation); details: immature and LPS-matured cells, 5 or 10 μM
Procedure: The following reagents were used for imaging experiments: WGA AlexaFluor-647 and Hoechst (both from Life Technologies). Micro-channels were coated with Fibronectin (Sigma). Cell activation was performed with LPS (Sigma). For flow cytometry the following antibodies were used: anti-CD86 (GL1 clone, 553692) and a Rat IgG2a,κ isotype control (553930) from BD Biosciences.
(§1) Mouse bone-marrow cells were cultured during 10-12 days in medium supplemented with fetal calf serum and granulocyte-macrophage colony stimulating factor-containing supernatant obtained from transfected J558 cells, as previously described (Faure-Andre et al, 2008, Science, 322, 1705-10). For migration or mapping assays (see below), cells at day 10-12 were activated with 100 ng/ml of LPS (mature cells, LPS DCs), for 30 min, then rinsed 3 times with complete media and put into the channels. Counterpart immature cells for these experiments are treated in the same condition, but in absence of LPS.
Cells were resuspended in staining buffer (PBS BSA 2%) and stained 30 min at 4° C. with the indicated antibodies. Cells were then washed 3 times and resuspended in staining buffer. All Facs experiments were carried on an Accuri flow cytometer (BD Biosciences).

[2] = test system: dendritic cells; assay: Migration assay in micro-channels
Procedure: as §1
Micro-channels were prepared as previously described (Faure-Andre et al, 2008, Science, 322, 1705-10; Heuze et al., 2011, Methods Mol Biol., 769, 415-434). They were incubated with 10 μg/ml fibronectin alone for 1 h and washed with PBS.
For migration assay, cells were loaded in micro-channels (section 5×5 μm) and imaged at least for 16 hours on an epifluorescence video-microscope Nikon TiE microscope equipped with a cooled CCD camera (HQ2, Photometrics) with a 10× objective, one transmission phase image taken every 2 minutes. Kymograph extraction and instantaneous velocity analysis were performed using a homemade program as described previously (Faure-Andre et al, 2008, Science, 322, 1705-10).

[3] = test system: dendritic cells; assay: Mapping assay of polymerized actin in migrating Lifeact dendritic cells; details: immature DCs
Procedure: as §1
Lifeact dendritic cells (nucleofected or not) were incubated for 30 min in […] Hoechst-containing medium, washed 3 times and 10^5 cells per well were loaded and incubated from 4 h to overnight to allow their entry into micro-channels (section was 8×5 μm). After entry, cells were imaged at least for 16 hours on an epifluorescence video-microscope Nikon TiE microscope equipped with a cooled CCD camera (HQ2, Photometrics) with a 20× objective. Images were acquired every 3 minutes. […] Furthermore for each cell, spatial coordinates of the nuclei were measured and ratio between the mean actin density at the front and at the back of the nucleus was computed. […]

**Q.** What does the source list for MLSA1?
**A.** CD86 levels (cell activation / LPS-induced maturation) [1]: No effect; also recorded: does not activate immature cells, nor prevent the LPS-induced maturation; cell velocity ([2]; immature DCs): increases; persistence ([2]; immature DCs): increases; cell velocity ([2]; mature cells (LPS DCs)): does not further increase; persistence ([2]; mature cells (LPS DCs)): does not further increase; actin polymerization at the cell center/cell rear [3]: enriched at their rear; also recorded: partially induces; fraction of time spent by DCs with actin at their front ([3]; compared to immature control DCs): decreased

— US10100313B2, “Use of Mcoln-1 modulators to regulate cell migration” (INSTITUT CURIE, priority 2014, dated 2018)
